Results taken from patent US9593113B2, “Imide and acylurea derivatives as modulators of the glucocorticoid receptor” (BRISTOL-MYERS SQUIBB COMPANY, priority 2013, dated 2017).
Like-named read-outs stand apart in the source and are kept apart here.

Tested on: AP-1 induced transcriptional activity
Test: Cellular transrepressional assay (AP-1 luciferase reporter, PMA-activated A549 cell)
Type: cell-based
Conditions: A549 cell, 10 ng/ml PMA, 7 hours; for EC50: read-out: AP-1 (EC50, nM) (measured in cellular transrepression assay)
Protocol: To measure the ability of test molecules to inhibit AP-1 induced transcriptional activity we utilized an A549 cell which was stably transfected with a plasmid containing 7×AP-1 DNA binding sites (pAP-1-Luc plasmid, Stratagene Co., La Jolla, Calif.) followed by the gene for luciferase. Cells were activated with 10 ng/ml of phorbol myristic acid (PMA) plus or minus test molecules for 7 hours. After 7 hours a luciferase reagent was added to measure luciferase enzymatic activity in the cell. After a 10 minute incubation of luciferase reagent with cells, luminescence was measured in a TOPCOUNT® luminescence counter. Repression of AP-1 activity was calculated as the percentage decrease in the signal induced by PMA alone. Test molecules were analyzed in the concentration range from 0.1 nM to 40 μM. EC50s were determined by using standard curve fitting methods such as Excel fit (Microsoft Co.). An EC50 is the test molecule concentration at which there is a 50% repression of the maximal inhibition of transcription, i.e., a 50% reduction of AP-1 activity.

EC50 (Homo sapiens)	SMILES	AP-1 Max % inhibition (measured in cellular transrepression assay)	EC50
47.1 nM	CNC(=O)NC(=O)C(C)(C)[C@@H]1c2ccc(-c3ccc(C(C)(C)O)cc3)nc2Oc2c(F)cccc21 [Example 15]	61.15%	
199 nM	CC(C)NC(=O)NC(=O)C(C)(C)[C@@H]1c2ccc(-c3ccc(C(=O)N4CCOCC4)cc3)nc2Oc2c(F)cccc21 [Example 19]	25.94%	
786 nM	CC(C)(C(=O)NC(=O)NCCO)[C@@H]1c2ccc(-c3ccc(C(=O)N4CCOCC4)cc3)nc2Oc2c(F)cccc21 [Example 77]	55.34%	
789 nM	CC(C)(O)CNC(=O)NC(=O)C(C)(C)[C@@H]1c2ccc(-c3ccc(C(C)(C)O)cc3)nc2Oc2c(F)cccc21 [Example 79]	36.12%	
84.6 nM	CC(C)(O)c1ccc(-c2ccc3c(n2)Oc2c(F)cccc2[C@@H]3C(C)(C)C(=O)NC(=O)NCCO)cc1 [Example 80]	44.42%	
4.97 nM	CC(=O)NC(=O)C(C)(C)[C@@H]1c2ccc(-c3ccc(C(=O)N4CCOCC4)cc3)nc2Oc2c(F)cccc21 [Example 2]	67.48%	
5000 nM	COC(=O)NC(=O)C(C)(C)[C@@H]1c2ccc(-c3ccc(C(=O)OC)cc3)nc2Oc2c(F)cccc21 [Example 26]	6.98%	

Second part, the molecule before the results:

SMILES	EC50 (Homo sapiens)	AP-1 Max % inhibition (measured in cellular transrepression assay)	EC50
CC(C)(C(=O)NC(N)=O)[C@H]1c2ccccc2Oc2nc(-c3ccc(C(=O)N4CCOCC4)cc3)ccc21 [Example 28]	7.63 nM	68.66%	
CCC(=O)NC(=O)C(C)(C)[C@@H]1c2ccc(-c3ccc(C(=O)N4CCOCC4)cc3)nc2Oc2c(F)cccc21 [Example 5]	180 nM	32.83%	
CC(C)(C(=O)NC(N)=O)[C@H]1c2ccccc2Oc2nc(-c3ccc(C(=O)N4CCOCC4)c(F)c3)ccc21 [Example 44]		69.43%	13.9 nM
CC(C)(C(=O)NC(=O)Nc1ccccc1)[C@@H]1c2ccc(-c3ccc(C(=O)N4CCOCC4)cc3)nc2Oc2c(F)cccc21 [Example 21]		39.92%	21.7 nM
CC(C)(C(=O)NC(N)=O)[C@@H]1c2ccc(-c3ccc(C(=O)N4CCC4)cc3)nc2Oc2c(F)cccc21 [Example 84]	4.22 nM	67.75%	
COc1ccc2c(c1)Oc1ccccc1[C@@H]2C(C)(C)C(=O)NC(N)=O [Example 74]	5000 nM	7.70%	
CNC(=O)NC(=O)C(C)(C)[C@@H]1c2ccc(Cl)nc2Oc2c(F)cccc21 [Example 14]	337 nM	54.92%	
CC(C)(C(=O)NC(=O)N1CCOCC1)[C@@H]1c2ccc(-c3ccc(C(=O)N4CCOCC4)cc3)nc2Oc2c(F)cccc21 [Example 10]	623 nM	66.12%	
CC(C)(O)c1ccc(-c2ccc3c(n2)Oc2c(F)cccc2[C@@H]3C(C)(C)C(=O)NC(N)=O)cc1 [Example 69]	2.03 nM	67.09%	
CC(C)(C(=O)NC(N)=O)[C@@H]1c2ccc(-c3ccc(C(=O)N4CCOCC4)c(F)c3)nc2Oc2c(F)cccc21 [Example 56]		72.50%	6.39 nM
CC(C)(C(=O)NC(=O)NC1CCCC1)[C@@H]1c2ccc(-c3ccc(C(=O)N4CCOCC4)cc3)nc2Oc2c(F)cccc21 [Example 20]		29.26%	135 nM
CCNC(=O)NC(=O)C(C)(C)[C@@H]1c2ccc(-c3ccc(C(=O)N4CCOCC4)cc3)nc2Oc2c(F)cccc21 [Example 22]		44.77%	8.21 nM
CC(=O)NC(=O)C(C)(C)[C@H]1c2ccccc2Oc2nc(-c3ccc(C(=O)N4CCOCC4)cc3)ccc21 [Example 4]	6.65 nM	67.93%	
